Reference: patent US20220062240A1, “METHODS OF TREATING CANCER USING A CLK INHIBITOR” (BioSplice Therapeutics, Inc., priority 2018, published 2022)
Like-named read-outs stand apart in the source and are kept apart here.

Experiments:
[1] = test system: Wnt-responsive Sp5-Luc reporter in SW480 colon carcinoma cells; test: Wnt activity screening assay (Sp5-Luc reporter); type: cell-based; details: Homo sapiens
From the text: The screening assay for Wnt activity is described as follows. Reporter cell lines can be generated by stably transducing cancer cell lines (e.g., colon cancer) or primary cells (e.g., IEC-6 intestinal cells) with a lentiviral construct that includes a Wnt-responsive promoter driving expression of the firefly luciferase gene.
SW480 colon carcinoma cells were transduced with a lentiviral vector expressing luciferase with a human Sp5 promoter consisting of a sequence of eight TCF/LEF binding sites. […] These stably transduced SW480 cells were expanded in cell culture and used for all further screening activities. […] For Sp5-Luc reporter gene assays, the cells were plated at 4,000 cells/well in 384-well plates with a DMEM medium containing 1% fetal bovine serum, and 1% Penicillin-Streptomycin and incubated for 36 to 48 hours at 37° C. and 5% CO2. Following incubation, 15 μL of BriteLite Plus luminescence reagent (Perkin Elmer) was added to each well of the 384-well assay plates. The plates were placed on an orbital shaker for 2 min and then luminescence was quantified using the Envision (Perkin Elmer) plate reader.

CLK2 = molecular target: T1, CLK2 (Homo sapiens, UniProt P49760); test: CLK2 kinase activity assay (Z-lyte, Ser/Thr 6 peptide); type: biochemical; details: recombinant CLK2 kinase, ATP 60 μM; read-out: EC50
T1 construct: purchased Thermo Fisher (Life Technologies), Z'-LYTE Kinase Assay Kits
T1 sequence (P49760 whole entry): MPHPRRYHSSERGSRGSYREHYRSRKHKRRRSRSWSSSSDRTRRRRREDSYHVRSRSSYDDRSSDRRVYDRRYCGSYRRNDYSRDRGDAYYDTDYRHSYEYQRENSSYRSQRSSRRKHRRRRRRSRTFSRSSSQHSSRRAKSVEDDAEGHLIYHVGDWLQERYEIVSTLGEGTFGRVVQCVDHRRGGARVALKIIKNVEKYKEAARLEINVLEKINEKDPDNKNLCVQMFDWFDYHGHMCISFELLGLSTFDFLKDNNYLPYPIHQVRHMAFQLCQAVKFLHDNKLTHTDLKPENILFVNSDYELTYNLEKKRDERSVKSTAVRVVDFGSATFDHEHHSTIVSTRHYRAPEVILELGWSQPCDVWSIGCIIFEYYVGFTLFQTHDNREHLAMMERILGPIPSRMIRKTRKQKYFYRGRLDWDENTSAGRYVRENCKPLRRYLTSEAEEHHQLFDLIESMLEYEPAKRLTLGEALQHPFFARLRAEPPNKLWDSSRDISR
Method: All reactions were performed in duplicate.

[2] = test system: SW480 colorectal cancer cells; test: Gene expression qRT-PCR in SW480 cells; type: cell-based; details: Homo sapiens
Method: SW480 colorectal cancer cells were plated at 1×10^4 cells per well into 96-well plates (Olympus). Compounds were diluted in cell culture media and added to the cells at a final concentration of 3 μM. Cells were treated with vehicle (DMSO) and compounds for 24 hours. N=3 biological replicates per conditions.
Following treatment, cells were lysed, and cDNA was generated using the Fastlane Cell cDNA Kit (Qiagen).
384-well PCR plates with pre-spotted primers for CLK1, CLK2, CLK3, DVL2, LRP5, SRSF1, SRSF3, SRSF4, SRSF5, TCF7, TCF7L2 were ordered from Bio-Rad. The generated cDNA, along with a SYBR Green qRT-PCR master mix (SsoAdvanced™ Universal SYBR® Green Supermix, Bio-Rad) was added to the PCR plates.
qRT-PCR was performed on the plates using a CFX384 Touch™ Real-Time PCR Detection System (Bio-Rad) with the manufacturer's recommended thermal cycling conditions.
Data from the qRT-PCR assay was normalized to the GAPDH and HPRT1 housekeeping genes and set gene expression fold change was set relative to vehicle-treated cells using the ΔΔCt analysis method.

CLK3 = CLK3 (Homo sapiens, UniProt P49761); test: CLK3 kinase activity assay (Z-lyte, Ser/Thr 18 peptide)
Chain of CLK3 (P49761 whole entry): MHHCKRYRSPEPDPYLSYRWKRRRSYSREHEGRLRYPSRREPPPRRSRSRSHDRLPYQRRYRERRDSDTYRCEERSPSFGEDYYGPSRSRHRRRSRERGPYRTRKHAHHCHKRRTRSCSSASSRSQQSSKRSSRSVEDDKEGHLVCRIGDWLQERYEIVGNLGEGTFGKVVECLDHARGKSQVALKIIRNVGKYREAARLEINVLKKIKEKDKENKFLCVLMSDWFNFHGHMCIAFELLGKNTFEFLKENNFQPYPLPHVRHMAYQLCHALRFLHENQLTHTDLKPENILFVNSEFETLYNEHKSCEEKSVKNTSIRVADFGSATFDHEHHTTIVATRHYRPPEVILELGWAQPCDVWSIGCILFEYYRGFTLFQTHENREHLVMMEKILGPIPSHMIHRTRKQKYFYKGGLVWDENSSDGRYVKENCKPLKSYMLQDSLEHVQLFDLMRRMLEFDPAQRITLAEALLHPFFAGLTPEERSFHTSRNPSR

all 50 cell lines = test: CellTiter-Glo Viability Assay, average across all cell lines; type: cell-based; details: Homo sapiens; across all 50 cell lines; read-out: average EC50 for inhibition of cancer cell proliferation
Method: Fifty-one human cancer cell lines (breast cancer (8 cell lines), colorectal cancer (6 cell lines), haematopoietic & lymphoid tumors (13 cell lines), liver cancer (3 cell lines), lung cancer (4 cell lines), ovarian cancer (4 cell lines), pancreatic cancer (8 cell lines), and prostate cancer (5 cell lines)) were tested to determine the effects of representative compounds of Formulas (I)-(XII) on cellular proliferation, as evaluated using the CellTiter-Glo® Viability Assay.
For the Cell Viability Assays, cells were plated at 300-3,000 cells/well in 384-well plates in their respective media containing 1% Penicillin-Streptomycin and incubated for four days at 37° C. and 5% CO2. Twenty-eight replicates of DMSO-treated cells served as controls and cells treated with compound were performed in duplicate.
After incubation, 10 μL of CellTiter-Glo® (Promega) was added to each well allowed to incubate for approximately 12 minutes. This reagent results in cell lysis and generation of a luminescent signal proportional to the amount of ATP present. The amount of ATP is directly proportional to the number of metabolically active, viable cells present in culture. The CellTiter-Glo® Assay generates a luminescent signal, produced by the luciferase reaction (Promega.com).
After incubation, the luminescence signal was read using an EnVision™ Multilabel Plate Reader (Perkin Elmer). Dose-response curves were generated and EC50 concentration values were calculated using Dotmatics' Studies Software (Bishops Stortford, UK).

[3] = SW480 Sp5-Luc reporter, 36 to 48 hours, read-out: EC50
[4] = SW480, 3 μM, 24 hours, relative to DMSO, read-out: gene expression fold change CLK1
[5] = SW480, 3 μM, 24 hours, relative to DMSO, read-out: gene expression fold change CLK2
[6] = SW480, 3 μM, 24 hours, relative to DMSO, read-out: gene expression fold change CLK3
[7] = SW480, 3 μM, 24 hours, relative to DMSO, read-out: gene expression fold change DVL2
[8] = SW480, 3 μM, 24 hours, relative to DMSO, read-out: gene expression fold change LRP5
[9] = SW480, 3 μM, 24 hours, relative to DMSO, read-out: gene expression fold change SRSF1
[10] = SW480, 3 μM, 24 hours, relative to DMSO, read-out: gene expression fold change SRSF3
[11] = SW480, 3 μM, 24 hours, relative to DMSO, read-out: gene expression fold change SRSF4
[12] = SW480, 3 μM, 24 hours, relative to DMSO, read-out: gene expression fold change SRSF5
[13] = SW480, 3 μM, 24 hours, relative to DMSO, read-out: gene expression fold change TCF7
[14] = SW480, 3 μM, 24 hours, relative to DMSO, read-out: gene expression fold change TCF7L2

Structure (SMILES)	EC50 [1, 3]	EC50 (CLK2)	EC50 (CLK3)	fold induction at 3 µM [2, 4]	fold induction at 3 µM [2, 5]	fold induction at 3 µM [2, 6]	fold induction at 3 µM [2, 7]	fold induction at 3 µM [2, 8]	fold induction at 3 µM [2, 9]	fold induction at 3 µM [2, 10]	fold induction at 3 µM [2, 11]	fold induction at 3 µM [2, 12]	fold induction at 3 µM [2, 13]	fold induction at 3 µM [2, 14]	other results
CN1CCC(C(=O)Nc2c[nH]nc2-c2nc3c(-c4cccc(F)c4)cccc3[nH]2)CC1 [Compound 1]	39 nM	1 nM	10 nM	0.02	0.02	0.01	0.14	0.18	0.32	0.13	0.03	0.39	0.44	0.24	–
Cc1n[nH]c2ncc(-c3cncc(OC[C@@H](N)Cc4ccccc4)n3)cc12 [Compound 4]	525 nM	2 nM	1280 nM	0.43	0.35	0.74	0.11	0.06	0.25	0.05	0.7	0.27	0.21	0.13	–
Cc1ncc(NC(=O)c2n[nH]c3ccc(-c4cnn(C5CCNCC5)c4)cc23)s1 [Compound 5]	257 nM	0.3 nM	27 nM	0.15	0.12	0.55	0.37	0.43	1.52	0.46	0.27	0.6	0.3	0.24	–
CC(C)N1CCC(n2cc(C(=O)Nc3cc4cc(-c5cnn(C)c5)ccc4cn3)cn2)CC1 [Compound 11]	13 nM	1 nM	5 nM	0.02	0.04	0.09	0.11	0.09	0.74	0.17	0.15	0.24	0.19	0.17	–
O=C(Nc1cc2cc(-c3cncc(NC4CCNC[C@@H]4F)n3)ccc2cn1)C1CC1 (some centres unmarked) [Compound 22]	14 nM	2 nM	18 nM	0.04	0.04	0.04	0.41	0.21	0.53	0.18	0.04	0.36	0.75	0.68	–
CCS(=O)(=O)c1cccc(-c2cc(C(=O)NC3CCN(C)CC3)c(C)c3[nH]c4ncc(C)cc4c23)c1 [Compound 24]	–	3 nM	70 nM	–	–	–	–	–	–	–	–	–	–	–	EC50 ([1]; SW480): 320 nM; fold induction at 3 µM ([2]; SW480, 24 h, read-out: gene expression fold change CLK1): 0.35; fold induction at 3 µM ([2]; SW480, 24 h, read-out: gene expression fold change CLK2): 0.19; fold induction at 3 µM ([2]; SW480, 24 h, read-out: gene expression fold change CLK3): 0.19; fold induction at 3 µM ([2]; SW480, 24 h, read-out: gene expression fold change DVL2): 0.39; fold induction at 3 µM ([2]; SW480, 24 h, read-out: gene expression fold change LRP5): 0.34; fold induction at 3 µM ([2]; SW480, 24 h, read-out: gene expression fold change SRSF1): 0.46; fold induction at 3 µM ([2]; SW480, 24 h, read-out: gene expression fold change SRSF3): 0.31; fold induction at 3 µM ([2]; SW480, 24 h, read-out: gene expression fold change SRSF4): 0.37; fold induction at 3 µM ([2]; SW480, 24 h, read-out: gene expression fold change SRSF5): 0.49; fold induction at 3 µM ([2]; SW480, 24 h, read-out: gene expression fold change TCF7): 0.49; fold induction at 3 µM ([2]; SW480, 24 h, read-out: gene expression fold change TCF7L2): 0.33
NC1CN(c2cncc(-c3cc4c(-c5nc6c(-c7cccc(F)c7)cccc6[nH]5)n[nH]c4cn3)n2)C1 [Compound 44]	79 nM	18 nM	108 nM	–	–	–	–	–	–	–	–	–	–	–	–
CC(C)CC(=O)Nc1cncc(-c2cc3c(-c4nc5c(-c6cc(F)cc(OCCN7CCCC7)c6)cncc5[nH]4)n[nH]c3cn2)c1 [Compound 45]	> 10000 nM	–	–	–	–	–	–	–	–	–	–	–	–	–	EC50 (all 50 cell lines): 8490 nM
Cc1ncc(-c2cnc3[nH]nc(-c4cc5c(-c6cc(F)cc(NCCN(C)C)c6)ccnc5[nH]4)c3c2)n1C [Compound 52]	–	1.9 nM	26.6 nM	–	–	–	–	–	–	–	–	–	–	–	EC50 (all 50 cell lines): 8460 nM

Second part, led by results:

EC50 [1, 3]	EC50 (CLK2)	EC50 (CLK3)	Structure (SMILES)	fold induction at 3 µM [2, 4]	fold induction at 3 µM [2, 5]	fold induction at 3 µM [2, 6]	fold induction at 3 µM [2, 7]	fold induction at 3 µM [2, 8]	fold induction at 3 µM [2, 9]	fold induction at 3 µM [2, 10]	fold induction at 3 µM [2, 11]	fold induction at 3 µM [2, 12]	fold induction at 3 µM [2, 13]	fold induction at 3 µM [2, 14]	other results
169 nM	1 nM	19 nM	Nc1cncc(-c2ccc3cnc(NC(=O)c4ccc(OC5CCNCC5)cc4)cc3c2)c1 [Compound 20]	0.07	0.08	0.35	0.42	0.37	1.56	0.5	0.33	0.63	0.47	0.6	–
114 nM	10 nM	144 nM	Cc1nc(Nc2n[nH]c3c2CN(C(=O)N[C@H](CN(C)C)c2ccccc2)C3(C)C)c2sccc2n1 [Compound 25]	0.07	0.09	0.08	0.21	0.09	0.2	0.1	0.09	0.19	0.21	0.11	–
773 nM	2 nM	18 nM	CN(C)Cc1cncc(-c2ccc3[nH]nc(-c4nc5c(-c6cc(F)cc(CNS(C)(=O)=O)c6)ccnc5[nH]4)c3c2F)c1 [Compound 41]	–	–	–	–	–	–	–	–	–	–	–	–
133 nM	4 nM	40 nM	c1cncc(-c2ccc3[nH]nc(-c4nc5ccncc5[nH]4)c3c2)c1 [Compound 43]	–	–	–	–	–	–	–	–	–	–	–	–
> 10000 nM	2.2 nM	19.3 nM	CN(C)CCOc1cncc(-c2cc3c(-c4cc5c(-c6cccnc6)ccnc5[nH]4)n[nH]c3cn2)c1 [Compound 49]	–	–	–	–	–	–	–	–	–	–	–	EC50 (all 50 cell lines): 9720 nM
2170 nM	2.2 nM	30.5 nM	O=C(Nc1c[nH]nc1-c1nc2c(-c3cccc(F)c3)cncc2[nH]1)C1CCNCC1 [Compound 89]	–	–	–	–	–	–	–	–	–	–	–	EC50 (all 50 cell lines): 8500 nM
